Data reported in PMC12281424, “A Rac-specific competitive inhibitor of guanine nucleotide binding reduces metastasis in triple-negative breast cancer” (Cell Reports Medicine, 2025).

Tests used:
[1] = target: Serotonin (5-Hydroxytryptamine) 5-HT2C (Homo sapiens, UniProt P28335); experiment: Safety screen; type: binding
Experimental: (§1) Blood cell counts, kinase profiler, safety screen, bacterial cytotoxicity, Ames, micronucleus assays were performed by the company Eurofins (France).

FGFR1(V561M)(h) = FGFR1(V561M)(h) (Homo sapiens, UniProt P11362, V561M); experiment: Kinase Profiler; type: biochemical
Experimental: (§2) The kinase profiler was performed by the company Eurofins (Discovery, Panlab and Cerep).

HIPK3(h) = HIPK3(h) (Homo sapiens, UniProt Q9H422); experiment: Kinase Profiler; type: biochemical
Experimental: as §2

Pim-1(h) = Pim-1(h) (Homo sapiens, UniProt P11309); experiment: Kinase Profiler; type: biochemical
Experimental: (§3) Blood cell counts, kinase profiler, safety screen, bacterial cytotoxicity, Ames, micronucleus assays were performed by the company Eurofins (France). The kinase profiler was performed by the company Eurofins (Discovery, Panlab and Cerep).

MSSK1(h) = MSSK1(h) (Homo sapiens, UniProt Q9UPE1); experiment: Kinase Profiler; type: biochemical
Experimental: as §3

Potassium Channel hERG = Potassium Channel hERG (Homo sapiens, UniProt Q12809); experiment: Safety screen; type: binding
Experimental: as §3

FGFR3(h) = FGFR3(h) (Homo sapiens, UniProt P22607); experiment: Kinase Profiler; type: biochemical
Experimental: as §2

RAC1 = RAC1 (Homo sapiens, UniProt P63000); experiment: Surface plasmon resonance; type: binding; set-up: purchased Cytoskeleton RH01
Experimental: SPR immobilization was performed at 25°C. RAC1, RHOA and CDC42 purified proteins (respectively […] and CD01, Cytoskeleton) were diluted to 5 μg/mL in Na^+ acetate buffer (pH 5.0) and injected into sensor chip CM5 (GE Healthcare) in a Biacore T200 (GE Healthcare) that was activated with NHS/EDC buffer. Approximately 5,000 response units of the purified protein were immobilized on the biosensor chip. Biosensor chips were blocked by an injection of 1 mM ethanolamine (pH 8.5). SPR analysis was performed at 25°C in HBSEP running buffer (5% DMSO) with or without EDTA (20 mM). A41 compound was injected over the RAC1, RHOA or CDC42 functionalized surface in concentration range from 0 to 25μM. Association and dissociation phases were monitored during 60s and 300s, respectively.

JNK3(h) = JNK3(h) (Homo sapiens, UniProt P53779); experiment: Kinase Profiler; type: biochemical
Experimental: as §2

DYRK2(h) = DYRK2(h) (Homo sapiens, UniProt Q92630); experiment: Kinase Profiler; type: biochemical
Experimental: as §2

GRK5(h) = GRK5(h) (Homo sapiens, UniProt P34947); experiment: Kinase Profiler; type: biochemical
Experimental: as §3

SGK(h) = SGK(h) (Homo sapiens, UniProt O00141); experiment: Kinase Profiler; type: biochemical
Experimental: as §2

breast CAF spheroids = experiment: 3D invasion assay; type: cell-based, human; conditions: 10^-5 M
Experimental: Figure 5 A41 decreases growth and invasiveness of TNBC cells in vitro (A) Representative images of RAC-GTP levels (red) in MDA-MB-468 Luc cells in the absence (CTL) and presence of EHT1864, NSC23766, or A41 (1 h at 10 μM) (left). Luciferase (Luc, green) was used to detect the cells. RAC-GTP mean fluorescence intensity was quantified inside the cell area (right) (n = 31–37 cells from 3 independent experiments; ∗p < 0.05, ∗∗∗p < 0.001) (scale bars: 10 μm). […] (C) Quantification of colony number of indicated cancer cell lines in the presence of A41 (10 μM) expressed as the percentage of control in the absence of A41. Results shown are representative of N > 3 independent experiments. (D) Immunoblot analysis and corresponding quantification of AKT and P44/42 expression and phosphorylation (pAKT, p44/42) in MDA-MB-468 Luc cells in the absence (−) and presence of NSC23766 or A41 (1 h at 10^−5 M). […] (E) 3D invasion assay of MDA-MB-468 Luc and cancer-associated fibroblasts (CAFs) and corresponding quantification (scale bars: 200 μm). […]
3D-spheroids were obtained, according the protocol previously described,[62] by re-suspending cells at a concentration of 1.25 × 10^4 cells/ml in 20% Methyl-cellulose/80% DMEM 10% FBS. […] Invasion was monitored by fully automated Dmi6000b Wide Field Fluorescence Microscope (Leica Microsystems, Wetzlar, Germany) during 48h.

[2] = target: Cholecystokinin CCK1 (CCKA) (Homo sapiens, UniProt P32238); experiment: Safety screen; type: binding
Experimental: as §1

[3] = target: Cholecystokinin CCK2 (CCKB) (Homo sapiens, UniProt P32239); experiment: Safety screen; type: binding
Experimental: as §1

ROCK-II(h) = ROCK-II(h) (Homo sapiens, UniProt O75116); experiment: Kinase Profiler; type: biochemical
Experimental: as §3

Ron(h) = Ron(h) (Homo sapiens, UniProt Q04912); experiment: Kinase Profiler; type: biochemical
Experimental: as §3

DAPK2(h) = DAPK2(h) (Homo sapiens, UniProt Q9UIK4); experiment: Kinase Profiler; type: biochemical
Experimental: as §3

Dopamine D2L = Dopamine D2L (Homo sapiens, UniProt P14416); experiment: Safety screen; type: binding
Experimental: as §1

CaMKIV(h) = CaMKIV(h) (Homo sapiens, UniProt Q16566); experiment: Kinase Profiler; type: biochemical
Experimental: as §2

MAPK1(h) = MAPK1(h) (Homo sapiens, UniProt P27361); experiment: Kinase Profiler; type: biochemical
Experimental: as §2

[4] = target: Protein Tyrosine Kinase, Insulin Receptor (Homo sapiens, UniProt P06213); experiment: Safety screen; type: biochemical
Experimental: as §2

NEK3(h) = NEK3(h) (Homo sapiens, UniProt P51956); experiment: Kinase Profiler; type: biochemical
Sequence of NEK3(h) (P51956 whole entry): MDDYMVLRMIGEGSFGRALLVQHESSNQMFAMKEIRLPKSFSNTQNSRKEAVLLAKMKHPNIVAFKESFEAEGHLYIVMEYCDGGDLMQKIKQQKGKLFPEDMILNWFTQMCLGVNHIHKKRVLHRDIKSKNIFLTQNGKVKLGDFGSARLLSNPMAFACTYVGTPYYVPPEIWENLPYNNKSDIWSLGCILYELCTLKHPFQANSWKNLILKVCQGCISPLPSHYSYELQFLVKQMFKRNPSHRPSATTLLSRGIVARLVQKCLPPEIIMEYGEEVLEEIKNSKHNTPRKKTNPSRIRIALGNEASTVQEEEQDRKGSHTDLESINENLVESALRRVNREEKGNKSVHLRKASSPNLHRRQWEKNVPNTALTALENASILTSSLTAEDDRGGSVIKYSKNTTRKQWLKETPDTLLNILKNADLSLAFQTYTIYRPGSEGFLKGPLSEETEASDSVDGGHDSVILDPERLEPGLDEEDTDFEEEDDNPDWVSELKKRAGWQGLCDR
Experimental: as §2

Sequence of CaMKIV(h) (Q16566 whole entry): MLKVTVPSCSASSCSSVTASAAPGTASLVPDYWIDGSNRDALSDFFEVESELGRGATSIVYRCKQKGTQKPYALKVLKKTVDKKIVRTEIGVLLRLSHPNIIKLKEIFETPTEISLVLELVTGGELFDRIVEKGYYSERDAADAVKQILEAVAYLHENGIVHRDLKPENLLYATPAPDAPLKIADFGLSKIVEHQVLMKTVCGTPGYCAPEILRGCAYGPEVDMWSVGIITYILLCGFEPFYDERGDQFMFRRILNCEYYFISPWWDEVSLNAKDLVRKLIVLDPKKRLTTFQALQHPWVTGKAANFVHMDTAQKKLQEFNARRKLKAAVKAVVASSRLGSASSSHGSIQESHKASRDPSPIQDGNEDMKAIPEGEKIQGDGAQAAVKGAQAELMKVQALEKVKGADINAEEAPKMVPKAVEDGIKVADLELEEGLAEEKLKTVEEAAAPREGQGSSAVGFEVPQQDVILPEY
Sequence of ROCK-II(h) (O75116 whole entry): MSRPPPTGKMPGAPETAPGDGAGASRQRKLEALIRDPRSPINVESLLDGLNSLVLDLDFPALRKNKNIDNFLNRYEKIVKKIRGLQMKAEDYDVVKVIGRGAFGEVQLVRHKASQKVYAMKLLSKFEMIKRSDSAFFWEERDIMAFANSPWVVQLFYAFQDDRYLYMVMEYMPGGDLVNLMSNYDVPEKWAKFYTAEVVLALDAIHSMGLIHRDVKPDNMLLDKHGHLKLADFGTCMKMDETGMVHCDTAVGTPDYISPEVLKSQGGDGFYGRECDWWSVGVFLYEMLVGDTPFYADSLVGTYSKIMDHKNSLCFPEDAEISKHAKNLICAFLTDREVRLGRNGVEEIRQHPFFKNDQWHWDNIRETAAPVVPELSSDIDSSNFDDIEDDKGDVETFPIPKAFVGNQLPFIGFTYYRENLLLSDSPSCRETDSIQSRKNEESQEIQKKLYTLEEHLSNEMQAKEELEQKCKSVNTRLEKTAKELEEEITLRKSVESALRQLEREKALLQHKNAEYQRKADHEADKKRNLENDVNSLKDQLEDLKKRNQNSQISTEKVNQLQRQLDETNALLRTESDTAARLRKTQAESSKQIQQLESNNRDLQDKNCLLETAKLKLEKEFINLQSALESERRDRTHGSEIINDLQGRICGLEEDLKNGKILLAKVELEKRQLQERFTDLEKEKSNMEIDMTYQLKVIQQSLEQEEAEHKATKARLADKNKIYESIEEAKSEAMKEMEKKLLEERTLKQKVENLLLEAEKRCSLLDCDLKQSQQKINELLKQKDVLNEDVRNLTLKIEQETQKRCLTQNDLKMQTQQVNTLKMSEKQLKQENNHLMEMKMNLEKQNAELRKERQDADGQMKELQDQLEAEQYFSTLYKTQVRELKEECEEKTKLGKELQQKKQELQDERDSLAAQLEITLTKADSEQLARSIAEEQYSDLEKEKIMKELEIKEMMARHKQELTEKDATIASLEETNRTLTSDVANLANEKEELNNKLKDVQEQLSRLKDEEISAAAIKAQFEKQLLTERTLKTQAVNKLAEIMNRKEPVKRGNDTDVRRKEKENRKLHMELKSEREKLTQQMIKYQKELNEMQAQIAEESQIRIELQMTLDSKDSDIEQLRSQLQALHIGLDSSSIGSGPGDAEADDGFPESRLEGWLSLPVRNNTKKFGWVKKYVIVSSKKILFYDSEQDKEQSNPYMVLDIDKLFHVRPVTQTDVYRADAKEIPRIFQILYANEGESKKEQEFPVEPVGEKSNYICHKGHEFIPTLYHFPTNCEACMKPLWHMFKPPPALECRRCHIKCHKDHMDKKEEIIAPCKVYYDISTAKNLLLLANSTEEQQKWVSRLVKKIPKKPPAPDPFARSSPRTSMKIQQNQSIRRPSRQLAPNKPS
Sequence of Potassium Channel hERG (Q12809 whole entry): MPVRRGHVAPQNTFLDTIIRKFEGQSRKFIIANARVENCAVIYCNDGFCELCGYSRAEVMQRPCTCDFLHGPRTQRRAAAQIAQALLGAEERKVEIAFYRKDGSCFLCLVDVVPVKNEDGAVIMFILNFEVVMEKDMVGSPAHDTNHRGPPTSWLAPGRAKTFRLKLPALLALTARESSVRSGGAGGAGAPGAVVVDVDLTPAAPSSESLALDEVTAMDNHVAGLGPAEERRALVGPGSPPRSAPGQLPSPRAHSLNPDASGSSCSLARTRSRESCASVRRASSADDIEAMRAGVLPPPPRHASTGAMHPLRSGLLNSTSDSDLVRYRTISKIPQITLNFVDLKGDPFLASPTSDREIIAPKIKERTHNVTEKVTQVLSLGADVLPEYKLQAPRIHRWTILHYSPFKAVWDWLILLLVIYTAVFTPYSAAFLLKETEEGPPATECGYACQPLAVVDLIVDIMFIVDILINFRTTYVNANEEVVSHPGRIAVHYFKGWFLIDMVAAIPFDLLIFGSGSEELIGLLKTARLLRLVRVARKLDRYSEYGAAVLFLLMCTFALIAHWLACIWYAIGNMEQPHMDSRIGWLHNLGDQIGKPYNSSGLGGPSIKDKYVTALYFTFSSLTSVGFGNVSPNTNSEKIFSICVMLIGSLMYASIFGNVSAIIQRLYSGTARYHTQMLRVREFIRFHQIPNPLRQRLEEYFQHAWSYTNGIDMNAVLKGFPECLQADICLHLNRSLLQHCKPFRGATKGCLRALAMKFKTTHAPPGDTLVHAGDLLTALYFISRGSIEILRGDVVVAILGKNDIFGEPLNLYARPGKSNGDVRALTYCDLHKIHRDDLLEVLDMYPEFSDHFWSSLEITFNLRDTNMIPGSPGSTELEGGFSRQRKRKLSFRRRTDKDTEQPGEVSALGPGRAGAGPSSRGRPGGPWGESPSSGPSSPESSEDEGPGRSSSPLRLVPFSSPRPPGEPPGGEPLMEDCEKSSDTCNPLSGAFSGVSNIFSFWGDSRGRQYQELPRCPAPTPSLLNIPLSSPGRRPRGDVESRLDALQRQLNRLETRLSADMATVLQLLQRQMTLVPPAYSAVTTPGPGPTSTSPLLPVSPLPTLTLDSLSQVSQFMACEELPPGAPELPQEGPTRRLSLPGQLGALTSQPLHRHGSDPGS
Sequence of Dopamine D2L (P14416 whole entry): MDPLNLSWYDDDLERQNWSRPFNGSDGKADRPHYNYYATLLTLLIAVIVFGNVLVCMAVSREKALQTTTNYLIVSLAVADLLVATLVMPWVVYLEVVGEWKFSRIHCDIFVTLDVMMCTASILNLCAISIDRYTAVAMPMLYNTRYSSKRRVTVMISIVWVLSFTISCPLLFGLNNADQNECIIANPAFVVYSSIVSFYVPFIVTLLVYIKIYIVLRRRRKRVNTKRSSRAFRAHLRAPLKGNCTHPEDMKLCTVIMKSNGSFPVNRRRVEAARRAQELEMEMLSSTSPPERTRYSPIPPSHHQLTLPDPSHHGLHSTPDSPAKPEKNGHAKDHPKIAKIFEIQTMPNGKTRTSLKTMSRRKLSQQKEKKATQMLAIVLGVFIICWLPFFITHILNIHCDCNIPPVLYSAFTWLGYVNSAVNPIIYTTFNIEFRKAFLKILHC
Sequence of Pim-1(h) (P11309 whole entry): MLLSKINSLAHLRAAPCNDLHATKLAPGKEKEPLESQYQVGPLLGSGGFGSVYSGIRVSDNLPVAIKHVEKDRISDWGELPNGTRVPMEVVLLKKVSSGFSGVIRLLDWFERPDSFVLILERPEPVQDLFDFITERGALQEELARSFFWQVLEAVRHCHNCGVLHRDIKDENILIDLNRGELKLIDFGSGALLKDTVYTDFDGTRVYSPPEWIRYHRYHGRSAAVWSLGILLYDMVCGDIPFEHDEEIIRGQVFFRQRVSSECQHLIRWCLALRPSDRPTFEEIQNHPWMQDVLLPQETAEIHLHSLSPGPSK
Sequence of MAPK1(h) (P27361 whole entry): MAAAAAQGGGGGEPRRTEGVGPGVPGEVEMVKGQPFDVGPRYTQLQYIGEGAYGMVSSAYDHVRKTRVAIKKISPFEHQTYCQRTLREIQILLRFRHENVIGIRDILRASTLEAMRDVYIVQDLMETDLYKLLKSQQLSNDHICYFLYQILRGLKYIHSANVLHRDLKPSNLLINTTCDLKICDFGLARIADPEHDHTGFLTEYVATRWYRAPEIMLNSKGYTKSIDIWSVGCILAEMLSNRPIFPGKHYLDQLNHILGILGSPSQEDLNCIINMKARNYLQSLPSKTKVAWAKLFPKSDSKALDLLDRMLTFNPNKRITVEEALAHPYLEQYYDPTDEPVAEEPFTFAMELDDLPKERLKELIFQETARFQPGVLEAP
Sequence of DAPK2(h) (Q9UIK4 whole entry): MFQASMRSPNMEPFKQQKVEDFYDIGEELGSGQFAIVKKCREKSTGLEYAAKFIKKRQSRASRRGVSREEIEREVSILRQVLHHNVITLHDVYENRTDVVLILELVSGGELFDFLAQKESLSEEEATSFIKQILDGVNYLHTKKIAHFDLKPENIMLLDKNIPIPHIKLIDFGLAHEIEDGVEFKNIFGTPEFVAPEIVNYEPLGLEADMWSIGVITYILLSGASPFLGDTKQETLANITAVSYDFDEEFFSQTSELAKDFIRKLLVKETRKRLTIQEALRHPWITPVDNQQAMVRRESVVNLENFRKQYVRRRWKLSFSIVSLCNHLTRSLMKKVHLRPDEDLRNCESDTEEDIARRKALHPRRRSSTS

COc1ccc(OC)c(NS(=O)(=O)c2ccc(NC(=O)CCSc3ccc(C)cc3)cc2)c1 [Compound A41]
% inh. [1]: 56%
Activity(%) (FGFR1(V561M)(h)): 129%
Activity(%) (HIPK3(h)): 95%
Activity(%) (Pim-1(h)): 95%
Activity(%) (MSSK1(h)): 125%
% inh. (Potassium Channel hERG): 22%
Activity(%) (FGFR3(h)): 89%
binding to RAC1 (RAC1; in the presence of 20 mM EDTA): strongly increased
Kd (RAC1; purified RAC1-GDP, without EDTA): 30 nM
Activity(%) (JNK3(h)): 123%
Activity(%) (DYRK2(h)): 104%
Activity(%) (GRK5(h)): 101%
Activity(%) (SGK(h)): 116%
invasion of CAF spheroids (breast CAF spheroids): anti-invasion property
% inh. [2]: 31%
% inh. [3]: 0%
Activity(%) (ROCK-II(h)): 93%
Activity(%) (Ron(h)): 110%
Activity(%) (DAPK2(h)): 99%
% inh. (Dopamine D2L): 9%
Activity(%) (CaMKIV(h)): 114%
Activity(%) (MAPK1(h)): 103%
% inh. [4]: -25%
Activity(%) (NEK3(h)): 107%
